The values that follow come from patent publication US8217042B2, “Pyridopyrazines and their use as modulators of kinases” (Zentaris GmbH, priority 2005, dated 2012).

For one assay, the target named is T1, Erk2.
T1 construct: in some cases as full-length kinases, in some cases as truncated fragments; purchased Upstate 14-173
The experiment in a line: Cell-free kinase assay (ALPHA technology), Erk2-ALPHA. Type of assay: biochemical. As to conditions: 10 μM ATP, recombinant human kinase. Put shortly: (§1)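 Recombinant GST- or His-tagged kinases (full-length or kinase-domain fragments); ALPHA bead detection read after overnight incubation. PI3Kalpha: 1 ng enzyme, 100 μM ATP, 20 μM PIP2, 1 h, pH 7.4 Hepes buffer, GST:Grp1 with biotinylated PIP3 detection; Erk2 read via anti-phospho-MBP. % inhibition versus no-ATP/no-substrate and no-compound controls, giving IC50.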

Another assay addresses T2, PI3Kalpha (Homo sapiens, UniProt P42336).
T2 construct: in some cases as full-length kinases, in some cases as truncated fragments; purchased Upstate 14-602
The experiment in a line: Cell-free kinase assay (ALPHA technology), PI3K-ALPHA. Type of assay: biochemical. As to conditions: 100 μM ATP, recombinant human kinase. Put shortly:
as §1

A further assay has as its target T3, p38alpha (Homo sapiens, UniProt Q16539).
T3 construct: in some cases as full-length kinases, in some cases as truncated fragments
The assay is described as follows: Cell-free kinase assay (ALPHA technology), p38alpha. The class given is biochemical. As to conditions: at 10 μM or 100 μM* ATP, recombinant human kinase. As for the experimental part: The inhibitory effect of the inventive compounds was tested on various human serine/threonine kinases, tyrosine kinases and lipid kinases in enzymatic assays. Recombinant human kinases, for example Erk2, PI3Kalpha, -beta, -gamma, -delta, p38alpha, p38gamma, Jnk1, Jnk2 and others were used, in some cases as full-length kinases, in some cases as truncated fragments—but at least consisting of the functional kinase domains. The commercial kinase proteins (Proqinase, Upstate) were used as recombinant fusion proteins with GST (glutathione S-transferase) tag or His tag. Depending on the substrate type, the different kinase reactions were quantified by means of suitable ALPHA™ beads (PerkinElmer). […]
The fluorescence was detected the next morning in a Fusion™ alpha instrument (Perkin Elmer).
The calculation of % inhibition values per substance concentration was done by means of the following formula from the raw data determined in the Fusion™ alpha:
The controls were each determined 8 times, the substance samples each twice. 0% control contained neither any ATP nor any substrate; the 100% control contained no test substance. The IC50 values were determined with GraphPadPrism.

For a further assay, the system named is Erk →pRsk. The assay is described as follows: Cellular substrate phosphorylation (Western blotting), Erk substrate Rsk1. Type of assay: cell-based. As to conditions: 5 h, tumour cell line. How it is done:
This method enables a statement of whether the kinase modulator investigated achieves the desired effect in a cellular context too, i.e., in this case, a substrate protein downstream of the target kinase is examined for its phosphorylation status. To this end, the cells incubated with substance are lysed and the overall protein is separated on a reducing polyacrylamide gel. Subsequently, the proteins are transferred by means of Western blotting to a PVDF membrane and the substrate bands sought are made visible with specific antibodies and a suitable detection method. The substrate proteins downstream of the target kinases are detected simultaneously with an anti-phospho antibody which is specific in each case and simultaneously a total antibody which recognizes the substrate total protein. The duplex technology of the ODYSSEY imager (LiCOR) enables this simultaneous measurement. The intensity of the total substrate bands is employed to normalize and quantify the phosphorylation inhibition or activation.
Suitable tumour cell lines (e.g. BxPC3, Hct116 or MDA MB468) were seeded into 6-well microtitre plates in a defined cell count (e.g. 350 000 cells/well for BxPC3 and Hct116) in the particular standard complete media and then incubated overnight in an incubator at 37° C., 5% CO2 and 95% air humidity. The cells were then incubated further for a further 24 h under reduced-serum conditions, i.e. in the particular medium except at only 0.25% serum. The test substances were made up as stock solutions (10 mM) in DMSO and incubated with the cells at final concentrations of 5, 15.8 and 50 μM for 5 h. This was followed by cell lysis in 25 mM Tris, 150 mM NaCl, 10 mM sodium pyrophosphate, 2 mM EGTA, 25 mM beta-glycerophosphate, 25 mM NaF, 10% glycerol, 0.75% NP-40, 100 μM NaVO4 buffer. After protein quantification by means of BCA (bicinchonic acid protein assay kit, Sigma) assay, amounts of protein of about 20 μg per track were separated on a Lammli polyacrylamide gel and then transferred onto a PVDF membrane (Millipore) by means of semi-dry Western blotting at 0.8 mA/cm^2 for 1 h. This was followed by prehybridization of the membrane for 1 hour in I-block reagent (Applied Biosystems) and overnight incubation with the specific antibodies. To determine the Erk and PI3K inhibition, the next substrates Rsk1 downstream were detected with the total antibody (Rsk #sc-231g C-21, Santa Cruz) and the phospho antibody (Phospho-p90RSK (S380) #9341, NEB Cell Signalling) and Akt with the total antibody (Akt1 #sc-20, Santa Cruz) and the phospho antibody (Phospho-Akt (Ser 473) #9271, NEB Cell Signaling). After the membrane had been washed, the secondary antibodies were incubated with anti-rabbit IR Dye 800 (#611-732-127, Rockland) for the phospho antibody and anti-goat Alexa Fluor 680 (#A-21081, […]) for the total protein antibody. After incubation for 30 min at room temperature in the dark, the hybridization of the detection antibody was detected on the membrane by scanning in an ODYSSEY imager (LiCOR).

T2 sequence (P42336 whole entry, the tested form may be a part): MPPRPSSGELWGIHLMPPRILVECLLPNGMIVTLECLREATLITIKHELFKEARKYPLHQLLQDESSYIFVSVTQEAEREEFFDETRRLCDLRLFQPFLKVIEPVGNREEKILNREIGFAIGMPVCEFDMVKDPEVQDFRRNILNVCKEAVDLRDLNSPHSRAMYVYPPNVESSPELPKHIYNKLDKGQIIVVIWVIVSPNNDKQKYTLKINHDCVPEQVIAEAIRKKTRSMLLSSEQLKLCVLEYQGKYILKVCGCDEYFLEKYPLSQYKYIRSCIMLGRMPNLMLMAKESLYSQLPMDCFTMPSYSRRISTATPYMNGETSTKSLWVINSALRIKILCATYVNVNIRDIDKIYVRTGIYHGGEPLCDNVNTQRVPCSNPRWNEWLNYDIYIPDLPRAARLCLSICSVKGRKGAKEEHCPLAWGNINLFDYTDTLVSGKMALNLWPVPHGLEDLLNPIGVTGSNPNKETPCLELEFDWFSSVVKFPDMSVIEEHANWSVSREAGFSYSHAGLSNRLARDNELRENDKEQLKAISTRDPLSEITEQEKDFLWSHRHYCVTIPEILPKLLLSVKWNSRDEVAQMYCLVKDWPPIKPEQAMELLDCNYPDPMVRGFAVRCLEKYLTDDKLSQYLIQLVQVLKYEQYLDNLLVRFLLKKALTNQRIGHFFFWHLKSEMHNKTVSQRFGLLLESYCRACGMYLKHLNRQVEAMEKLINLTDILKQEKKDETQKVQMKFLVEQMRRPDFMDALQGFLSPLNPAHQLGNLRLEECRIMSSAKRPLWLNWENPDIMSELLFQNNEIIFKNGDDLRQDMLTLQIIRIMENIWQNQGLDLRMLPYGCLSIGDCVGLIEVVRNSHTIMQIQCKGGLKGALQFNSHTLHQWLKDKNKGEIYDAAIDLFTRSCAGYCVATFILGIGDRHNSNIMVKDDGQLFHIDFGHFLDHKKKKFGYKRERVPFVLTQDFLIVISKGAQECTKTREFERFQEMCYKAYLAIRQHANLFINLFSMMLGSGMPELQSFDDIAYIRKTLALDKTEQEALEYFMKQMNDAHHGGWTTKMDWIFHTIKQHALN
T2 sequence (P27986 whole entry partner, the tested form may be a part): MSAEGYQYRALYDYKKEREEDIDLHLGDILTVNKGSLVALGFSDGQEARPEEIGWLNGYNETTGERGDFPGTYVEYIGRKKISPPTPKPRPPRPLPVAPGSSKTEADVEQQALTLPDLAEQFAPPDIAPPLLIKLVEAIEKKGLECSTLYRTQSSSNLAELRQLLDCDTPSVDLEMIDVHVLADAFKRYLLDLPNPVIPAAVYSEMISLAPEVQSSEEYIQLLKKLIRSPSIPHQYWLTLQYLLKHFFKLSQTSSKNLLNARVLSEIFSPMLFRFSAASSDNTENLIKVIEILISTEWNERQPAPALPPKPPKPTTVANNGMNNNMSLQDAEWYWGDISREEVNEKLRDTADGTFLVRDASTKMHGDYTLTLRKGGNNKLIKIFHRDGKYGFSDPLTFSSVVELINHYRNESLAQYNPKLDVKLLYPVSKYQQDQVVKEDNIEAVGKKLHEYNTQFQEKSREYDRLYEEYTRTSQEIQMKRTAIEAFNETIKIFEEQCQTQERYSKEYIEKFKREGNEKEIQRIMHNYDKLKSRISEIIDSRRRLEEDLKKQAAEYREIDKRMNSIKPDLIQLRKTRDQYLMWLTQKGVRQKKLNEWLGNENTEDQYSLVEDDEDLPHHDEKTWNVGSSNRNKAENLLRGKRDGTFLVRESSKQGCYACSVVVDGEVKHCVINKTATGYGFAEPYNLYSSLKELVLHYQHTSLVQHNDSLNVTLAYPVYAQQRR
T1 sequence (P63085 whole entry, the tested form may be a part): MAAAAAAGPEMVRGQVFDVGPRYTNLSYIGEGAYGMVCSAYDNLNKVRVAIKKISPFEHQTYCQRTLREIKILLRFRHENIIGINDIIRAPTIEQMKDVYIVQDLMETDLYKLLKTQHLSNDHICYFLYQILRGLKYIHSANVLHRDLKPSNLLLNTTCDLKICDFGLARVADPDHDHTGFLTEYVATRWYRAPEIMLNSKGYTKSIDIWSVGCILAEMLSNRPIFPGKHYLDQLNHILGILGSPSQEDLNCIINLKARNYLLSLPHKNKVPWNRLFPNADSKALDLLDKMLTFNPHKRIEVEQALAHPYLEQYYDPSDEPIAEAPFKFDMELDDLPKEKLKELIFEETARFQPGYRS
T3 sequence (Q16539 whole entry, the tested form may be a part): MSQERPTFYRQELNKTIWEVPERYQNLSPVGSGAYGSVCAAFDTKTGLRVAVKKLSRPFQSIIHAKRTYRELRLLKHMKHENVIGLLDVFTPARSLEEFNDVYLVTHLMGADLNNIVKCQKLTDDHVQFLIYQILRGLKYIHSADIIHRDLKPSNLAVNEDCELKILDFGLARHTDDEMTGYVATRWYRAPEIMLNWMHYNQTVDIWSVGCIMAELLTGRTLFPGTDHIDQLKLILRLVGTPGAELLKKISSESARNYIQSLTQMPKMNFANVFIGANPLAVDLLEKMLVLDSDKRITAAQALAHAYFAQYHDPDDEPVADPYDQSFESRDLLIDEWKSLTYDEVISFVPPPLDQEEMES

For the compound `CCNC(=O)Nc1ccc2ncc(Nc3ccc(C)c(NS(C)(=O)=O)c3)nc2n1` [Compound 49, N-{5-[6-(3-Ethylurea)pyrido[2,3-b]pyrazin-3-ylamino]-2-methylphenyl}methanesulphonamide], the half-inhibitory concentration (IC50) on Erk2 is 9.6 µM; on PI3Kalpha, 1.9 µM; at p38alpha, 4 µM. In the assay with Erk →pRsk, the inhibition at 50 µM is 0%.
